Columns and labels:
[1] = molecular target: aglycanase; experiment: Aglycanase inhibition test (in vitro); assay type: biochemical; conditions: aglycanase from bovine nasal septum cartilage culture, aglycan-containing polyacrylamide particles, 37° C. for 2.5 hours
Protocol: An aglycanase inhibition test can be conducted by, for example, measuring aglycanase activity in the presence or absence of a test compound according to the method of Nagase et al. (H. Nagase and J. F. Woessner, Analytical Biochemistry, vol. 107, 385-392, 1980).
The enzyme used for measurement of aglycanase activity can be extracted from mammalian cartilage tissue itself or from its cultured medium. Extraction is performed by combining various types of chromatography, and the activity of aglycanase in the purification process can be detected by adding substrate (aglycan) to an eluted fraction and testing whether or not the substrate is cleaved. Whether or not the substrate is cleaved can be determined by performing imnunoblotting for the reaction liquid using an antibody that binds to the epitope, CNLeNIEGE, that is produced by cleavage of aglycan (substrate) by aglycanase (enzyme). It should be noted that antibody that binds to CNLeNIEGE can be prepared according to the method of Sandy et al. (J. D. Sandy et al., Journal of Biological Chemistry, vol. 270, 2550-2556, 1995).
Bovine nasal septum cartilage was cultured for 7 days at 37° C. in the presence of 1 μm retinoic acid in DMEM [containing 20 mM N-2-hydroxyethyl-piperazine-N′-2-ethane sulfonic acid (HEPES), 0.005% bovine serum albumin (BSA), 5 μg/ml insulin-transferrin sodium selenite media supplement, 1% penicillin and 1% streptomycin] while changing the medium once a day. The culture liquid collected from day 3 to day 7 was subjected to chromatography [carrier: Q-sepharose (Pharmacia), mobile phase: 20 mM Tris-HCl buffer (pH 7.2) containing 5 mM calcium chloride] and the fraction that passed through the column was collected. This was then subjected to additional chromatography [carrier: Zn-chelating sepharose (Pharmacia), mobile phase: Tris-HCl buffer (pH 7.2) containing 5 mM calcium chloride and 0.5 M sodium chloride], followed by elution using imidazole as the mobile phase. The fraction of the resulting eluted fractions that was confirmed to have aglycanase activity was collected. Moreover, this was subjected to additional chromatography [carrier: LCA-agarose (Honen Corporation), mobile phase: 20 mM aqueous solution of 2-(N-morpholino)ethanesulfonic acid (pH 6.5) containing 5 mM calcium chloride and 0.25 M sodium chloride], followed by elution using 2-methylmannopyranoside as the mobile phase. The fraction of the resulting eluted fractions that was confirmed to have aglycanase activity was collected, and this fraction was used as the enzyme liquid for measurement of aglycanase activity.
Separate from the above, antibody that binds with CNLeNIEGE was prepared according to the method of Sandy et al. (J. D. Sandy et al., Journal of Biological Chemistry, vol. 270, 2550-2556, 1995), and this antibody was used in immunoblotting to detect aglycanase activity in the above-mentioned purification process of the aglycanase. Immunoblotting was performed in accordance with conventional methods.
Measurement of activity was performed using a modification of the protease activity measurement method that uses polyacrylamide particles of Nagase et al. (H. Nagase and J. F. Woessner, Analytical Biochemistry, vol. 107, 385-392, 1980).
The aglycan used for the substrate was isolated from bovine nasal septum cartilage in accordance with cesium chloride sedimentation equilibrium centrifugation (New Biochemical Experimentation Course, 3, Saccharides II, 4-7, Tokyo Kagaku Dojin Publishing, 1991). By using this aglycan, polyacrylamide particles containing aglycan were prepared in accordance with the method of Nagase et al. (H. Nagase and J. F. Woessner, Analytical Biochemistry, vol. 107, 385-392, 1980). Namely, aglycan (dry weight: 480 mg) was first added to 28 ml of liquid A [1 M Tris-HCl buffer (pH 8.5) containing 0.2% N,N,N′,N′-tetramethylethylenediamine (TEMED)] and the mixture was stirred at 4° C. for 1 hour. […]

[2] = molecular target: T1, MMP-13 (Homo sapiens, UniProt P45452); experiment: MMP-13 inhibition test (in vitro); assay type: biochemical; conditions: recombinant active MMP-13, fluorescent substrate 20 μM, 1 hour at 37° C.
T1 construct: made in house; host or cells: COS-1 cells (vector pcDL-SRα296, culture supernatant)
Source text: MMP-13 exists in chondrocytes and chondrosarcoma cells, and the DNA sequence corresponding to the amino acid sequence of its precursor (proMMP-13) has been reported by Freije et al. (Freije, J. M. P., et al., J. Biol. Chem., vol. 269, 16766-16773, 1994). Therefore, proMMP-13 can be expressed by acquiring cDNA of proMMP-13 from chondrocytes and chondrosarcoma cells in accordance with conventional methods, by incorporating this into an ordinarily used vector, and by introducing this vector into suitable cells to transform the cells.
An MMP-13 inhibition test can be conducted by, for example, treating recombinant proMMP-13 obtained in the above manner with p-aminophenyl-mercuric(II) acetate (APMA) to convert proMMP-13 to active MMP-13, and then using this as enzyme to measure MMP-13 activity in the presence or absence of a test compound using a fluorescent substrate.
mRNA was isolated from human chondrosarcoma HCS-2/8, which is a chondrosarcoma cell line established by Takigawa et al. (Jpn. J. Cancer. Res., vol. 85, 364-371, 1994), in accordance with conventional methods, and cDNA of proMMP-13 was acquired by reverse transcription polymerase chain reaction (RT-PCR). 5′-[…]-3′ (Sequence No. 1 of the Sequence listing) and 5′-[…]-3′ (Sequence No. 2 of the Sequence listing), which contain the restriction enzyme cleavage site sacI or KpnI (portions indicated by underlining) were used for primers. […]
This enzyme solution and substrate (20 μM) were added to 50 mM Tris-HCl buffer (pH 7.5) containing 0.15 M sodium chloride, 10 mM calcium chloride, 0.05% Brij 35 and 0.02% sodium azide to bring the final volume to 0.1 ml, followed by reacting for 1 hour at 37° C. After stopping the reaction by adding 0.1 ml of 3% acetic acid, enzyme activity was determined by measuring with a fluorophotometer (Labsystems Fluoroskan II) at an excitation wavelength of 330 nm and emission wavelength of 390 nm. […]

Row | Compound | IC50 [1] [nM] | IC50 [2] [nM] | melting point [°C]
1 | CN(C(CCn1c(=O)[nH]c2ccccc2c1=O)C(=O)NO)S(=O)(=O)c1ccc(Oc2ccccc2)cc1 (racemic) [Example 6, (±)-N-Hydroxy-Nα-methyl-Nα-(4-phenoxybenzenesulfonyl)-2-[2-(quinazolin-2,4-dione-3-yl)ethyl]glycinamide] | 7 | – | –
2 | Cc1[nH]c(=O)n(CCC(C(=O)NO)N(C)S(=O)(=O)c2ccc(Oc3ccccc3)cc2)c(=O)c1C (racemic) [Example 18, (±)-2-[2-(5,6-Dimethylpyrimidin-2,4-dione-3-yl)ethyl]-N-hydroxy-Nα-methyl-Nα-(4-phenoxybenzenesulfonyl)glycinamide] | 7.6 | – | –
3 | CN(C(CCn1c(=O)[nH]c2ccsc2c1=O)C(=O)NO)S(=O)(=O)c1ccc(Oc2ccccc2)cc1 (racemic) [Example 42, (±)-N-Hydroxy-Nα-methyl-Nα-(4-phenoxybenzensulfonyl)-2-[2-(thieno[3,2-d]pyrimidin-2,4-dione-3-yl)ethyl]glycinamide] | 5.4 | 0.47 | –
4 | CN([C@H](CCN1C(=O)c2ccccc2C1=O)C(=O)NO)S(=O)(=O)c1ccc(Oc2ccccc2)cc1 [Example 72, N-Hydroxy-Nα-methyl-Nα-(4-phenoxybenzensulfonyl)-2(R)-(2-phthalimidoethyl)glycinamide] | 4.9 | – | –

Other lines, results leading:

Row | IC50 [1] [nM] | IC50 [2] [nM] | melting point [°C] | Compound
5 | – | – | 155 to 156 | CN(C(CCN1C(=O)c2cc(Cl)c(Cl)cc2C1=O)C(=O)NO)S(=O)(=O)c1ccc(Oc2ccccc2)cc1 (racemic) [Example 84, (±)-2-[2-(4,5-Dichlorophthalimido)ethyl]-N-hydroxy-Nα-methyl-Nα-(4-phenoxybenzenesulfonyl)glycinamide]
6 | – | – | 157 to 158 | Cc1ccc2c(c1)C(=O)N(CCC(C(=O)NO)N(C)S(=O)(=O)c1ccc(Oc3ccccc3)cc1)C2=O (racemic) [Example 86, (±)-N-Hydroxy-Nα-methyl-2-[2-(4-methylphthalimido)ethyl]-Nα-(4-phenoxybenzenesulfonyl)glycinamide]
7 | 3.7 | 0.43 | – | CN([C@H](CCn1c(=O)[nH]c2ccccc2c1=O)C(=O)NO)S(=O)(=O)c1ccc(Oc2cccc(Cl)c2)cc1 [Example 139, Nα-[4-(3-Chlorophenoxy)benzenesulfonyl]-N-hydroxy-Nα-methyl-2(R)-[2-(quinazolin-2,4-dione-3-yl)ethyl]glycinamide]
8 | 2.2 | 0.32 | – | CN([C@H](CCn1c(=O)[nH]c2ccsc2c1=O)C(=O)NO)S(=O)(=O)c1ccc(Oc2cccc(Cl)c2)cc1 [Example 140, Nα-[4-(3-Chlorophenoxy)benzenesulfonyl]-N-hydroxy-Nα-methyl-2(R)-[2-(thieno[3,2-d]pyrimidin-2,4-dione-3-yl)ethyl]glycinamide]
9 | 2.9 | – | – | CN([C@H](CCN1C(=O)c2ccccc2C1=O)C(=O)NO)S(=O)(=O)c1ccc(Oc2cccc(Cl)c2)cc1 [Example 141, Nα-[4-(3-Chlorophenoxy)benzenesulfonyl]-N-hydroxy-Nα-methyl-2(R)-(2-phthalimidoethyl)glycinamide]

From patent US6673804B1, “Sulfonamide derivatives” (Sankyo Company, Limited, priority 1998, dated 2004)
